Reference: patent publication US20250255966A1, “CORN PHYTOGLYCOGEN FORMULATIONS FOR STABILIZING PROTEINS” (UNIVERSITY OF FLORIDA RESEARCH FOUNDATION, INCORPORATED, priority 2022, published 2025)

Tested on: GFP
Assay: GFP preservation, comparison with common excipients
Format: biochemical
Conditions: after 10 cycles of lyophilization, excipient 20 mg/mL, 4 μM GFP
Procedure: As a model protein, 4 μM GFP was used. Each excipient was prepared at a concentration of 20 mg/mL as described above. Each excipient was mixed with GFP at a 1:1 (v/v) ratio. PBS without excipient was used as a control group. Samples were lyophilized, activity was measured, and relative activity was calculated using the same methods as above.

Compound | GFP stabilizing activity vs BSA | effectiveness as GFP/protein stabilizer
OC[C@H]1O[C@@](CO)(O[C@H]2O[C@H](CO)[C@@H](O)[C@H](O)[C@H]2O)[C@@H](O)[C@@H]1O [sucrose] | comparable | –
OC[C@H]1O[C@H](O[C@H]2O[C@H](CO)[C@@H](O)[C@H](O)[C@H]2O)[C@H](O)[C@@H](O)[C@@H]1O [trehalose] | comparable | –
polyethylene glycol [PEG] | – | not an effective GFP stabilizer
